Experimental data reported in US10842892B2, “Methods and apparatus for synthesizing imaging agents, and intermediates thereof” (Lantheus Medical Imaging, Inc., priority 2010, dated 2020).
Where “and” joins values, the source holds several entries; their conditions need not be identical. Equal values may be shown once.

Tests used:
[1] = tested on: normal rats and dogs; conditions: cited from earlier work
[2] = tested on: viable left ventricle; test: left ventricular viability after myocardial infarction, imaging agent 1 versus FDG; assay type: in vivo, rat
Description: MI was induced in rats by 30 minutes of\ coronary occlusion followed reperfusion. […] Viable left ventricle was quantified in images as the volume with ≥50% of maximum activity.

[3] = tested on: healthy volunteers; test: single-dose dosimetry and biodistribution trial in healthy subjects (MIRD); assay type: in vivo, human
Description: The following provides results obtained from a study regarding a single-dose dosimetry, biodistribution, and safety trial of imaging agent 1 in healthy subjects. Whole body PET image data for the 12 healthy volunteers were obtained using imaging agent 1 at approximately 10 minutes, 30 minutes, 50 minutes, 2 hours, 2.5 hours, 3.83 hours, and 4.5 hours post injection. Image data were attenuation corrected at the imaging site, and were quantified based on the Medical Internal Radiation Dose (MIRD) 16 methodology by Dosimetry Analysis Laboratory, CDE Dosimetry Services (CDE) to determine kinetic data in all organs showing significant uptake of activity. Dosimetry estimates were created via kinetic modeling of the quantified image data to determine residence times, and the standard MIRD methodology. These estimates were determined using 3 assumptions regarding urinary bladder voiding intervals (2.0, 3.5, and 4.8 hr). Kinetic data, residence times, and the dosimetry estimates are reported for individuals, and as summary statistics.

[4] = tested on: chronic myocardial infarct (MI); test: cardiac PET imaging in control and chronic myocardial infarct rabbits; assay type: in vivo; conditions: MI rabbit, images 20-30 min after injection
Text: Male New Zealand rabbits (body weight 2.5-3.5 kg) were purchased from Harlan (Oakwood, Mich.) and maintained in the AAALAC-accredited Animal Care Facility at Lantheus Medical Imaging. The study protocol was approved by the Institutional Animal Care and Use Committee. The procedure of developing a rabbit model of myocardial infarction (MI) was similar to the method described previously (Fujita M, Morimoto Y, Ishihara M, Shimizu M, Takase B, Maehara T et al. A new rabbit model of myocardial infarction without endotracheal intubation. J Surg Res 2004; 116:124-8). Briefly, the rabbit was anesthetized with ketamine (40 mg/Kg, im) and xylazine (9 mg/Kg, im) and placed in a supine position. The surgery was performed under aseptic conditions. A mid-sternotomy was performed carefully to avoid injury of parietal pleura. The pericardial sac was exposed and incised. […]
PET images and cardiovascular parameters were evaluated in both normal and MI rabbits. […] In addition, electrocardiogram (ECG) was also recorded with 3 non-invasive limb leads in lead II configuration using the BIOPAC system. […] After a stabilization period, cardiovascular parameters: MAP, SBP, DBP and ECG, were recorded 5 minutes before imaging agent 1 intravenous injection (˜1.5 mCi) and the recording continued for additional 20 minutes post-injection. […]

[5] = tested on: myocardial blood flow; conditions: humans, assumed, equivalent to prior studies; cited from earlier work
[6] = tested on: healthy adults; test: clinical safety evaluation after single dose at rest; assay type: in vivo, human; conditions: 13 healthy adults
Description: This was a non-randomized, open-label, single-dose study. A total of 13 healthy adult subjects were enrolled and administered a single dose of imaging agent 1 at a single study center in the United States. Subjects were screened within 14 days prior to enrollment to confirm subject eligibility, and began baseline assessments at the study center the day before study drug administration. Subjects remained at the study center until completion of the Study Day 2 safety assessments (24±8 hours post-dose). A telephone call was made to study subjects 48±8 hours post-dose for adverse event (AE) monitoring. All subjects returned to the study center approximately one week (5-7 days) post-dose for a follow-up safety visit, and were contacted by telephone approximately 14-17 days post-dose for final serious AE monitoring.

[7] = 12 healthy volunteers, voiding interval 3.5 hours
[8] = average, voiding interval 3.5 hours

Structure (SMILES): CC(C)(C)n1ncc(OCc2ccc(COCC[18F])cc2)c(Cl)c1=O [imaging agent 1, 2-t-butyl-4-chloro-5-[4-(2-(^18F)fluoroethoxymethyl)-benzyloxy]-2H-pyridazin-3-1]
- concentration (dose) inducing transit clinical signs (rapid and labored breathing, decreased activity, hunched posture, urination) [1]: ≥ 0.2 mg/kg
- dose at which these clinical signs were not observed [1]: ≤ 0.1 mg/kg
- left ventricular volume ([2]; control rats before surgery): 1.17±0.04 cm3
- viable left ventricular tissue volume ([2]; early stage MI (two days post surgery)): 0.94±0.01 cm3
- viable left ventricular tissue volume ([2]; late stage MI (four weeks post surgery)): 1.18±0.04 cm3
- EDE (effective dose equivalent), Mean ([3]; 12 healthy volunteers): 8.0E−02 rem/mCi
- absorbed dose estimate, Mean, Adrenals ([3]; 12 healthy volunteers): 5.8E−02 rem/mCi
- absorbed dose estimate, Mean, Brain ([3]; 12 healthy volunteers): 9.4E−02 rem/mCi
- absorbed dose estimate, Mean, Breasts ([3]; 12 healthy volunteers): 3.2E−02 rem/mCi
- absorbed dose estimate, Mean, Gallbladder Wall ([3]; 12 healthy volunteers): 6.4E−02 rem/mCi
- absorbed dose estimate, Mean, LLI Wall ([3]; 12 healthy volunteers): 4.3E−02 rem/mCi
- absorbed dose estimate, Mean, Liver ([3]; 12 healthy volunteers): 1.5E−01 rem/mCi
- absorbed dose estimate, Mean, Lungs ([3]; 12 healthy volunteers): 4.2E−02 rem/mCi
- absorbed dose estimate, Mean, Muscle ([3]; 12 healthy volunteers): 3.8E−02 rem/mCi
- absorbed dose estimate, Mean, Osteogenic Cells ([3]; 12 healthy volunteers): 6.9E−02 rem/mCi
- absorbed dose estimate, Mean, Ovaries ([3]; 12 healthy volunteers): 4.5E−02 rem/mCi
- absorbed dose estimate, Mean, Pancreas ([3]; 12 healthy volunteers): 5.9E−02 rem/mCi
- absorbed dose estimate, Mean, Red Marrow ([3]; 12 healthy volunteers): 6.0E−02 rem/mCi
- absorbed dose estimate, Mean, Salivary ([3]; 12 healthy volunteers): 1.3E−01 rem/mCi
- absorbed dose estimate, Mean, Skin ([3]; 12 healthy volunteers): 2.9E−02 rem/mCi
- absorbed dose estimate, Mean, Small Intestine ([3]; 12 healthy volunteers): 4.7E−02 rem/mCi
- absorbed dose estimate, Mean, Spleen ([3]; 12 healthy volunteers): 6.0E−02 rem/mCi
- absorbed dose estimate, Mean, Stomach Wall ([3]; 12 healthy volunteers): 1.5E−01 rem/mCi
- absorbed dose estimate, Mean, Testes ([3]; 12 healthy volunteers): 3.4E−02 rem/mCi
- absorbed dose estimate, Mean, Thymus ([3]; 12 healthy volunteers): 4.1E−02 rem/mCi
- absorbed dose estimate, Mean, Thyroid ([3]; 12 healthy volunteers): 1.2E−01 rem/mCi
- absorbed dose estimate, Mean, Total Body ([3]; 12 healthy volunteers): 4.5E−02 rem/mCi
- absorbed dose estimate, Mean, ULI Wall ([3]; 12 healthy volunteers): 4.7E−02 rem/mCi
- absorbed dose estimate, Mean, Urinary Bladder Wall ([3]; 12 healthy volunteers): 8.4E−02 rem/mCi
- absorbed dose estimate, Mean, Uterus ([3]; 12 healthy volunteers): 4.6E−02 rem/mCi
- ED (effective dose), Mean [3, 7]: 0.071 rem/mCi and 7.1E−02 rem/mCi
- absorbed dose estimate, Mean, Heart Wall [3, 7]: 0.18 rem/mCi and 1.8E−01 rem/mCi
- absorbed dose estimate, Mean, Kidneys [3, 7]: 0.24 rem/mCi and 2.4E−01 rem/mCi
- peak uptake, kidneys ([3]; average, 12 healthy volunteers): approximately 9.4 % of the injected activity
- peak uptake, liver ([3]; average, 12 healthy volunteers): approximately 19.1 % of the injected activity
- absorbed dose, heart wall [3, 8]: 0.048 mSv/MBq
- absorbed dose, kidneys [3, 8]: 0.066 mSv/MBq
- mean ED (effective dose) ([3]; voiding interval 3.5 hours): 0.019 mSv/MBq
- perfusion defect area in the left ventricular wall [4]: clearly detected
- first pass extraction fraction [5]: 0.94
- changes from baseline in vital signs, laboratory values, ECGs and EEGs [6]: not clinically significant
- potential cardiotoxicity (coagulation studies, Troponin-T levels) [6]: not exhibited
- tolerability [6]: well-tolerated and no clinically significant safety concerns were raised
